MIC data for 34 molecules are collected here from patent US8158657B2, “Heterocycles substituted pyridine derivatives and antifungal agent containing thereof” (Eisai R&D Management Co., Ltd., priority 2005, dated 2012).

Experiment [1] deals with C. albicans CAF2-1 strain. The experiment can be described thus: Anti-Candida activity, MIC measurement. To be noted: CAF21STRAIN, C. albicans CAF2-1, RPMI1640, 42-48 hours at 35° C., visual inspection, read-out: Anti-Candida Activity (minimum inhibitory concentration, MIC). It is filed as cell-based. The protocol: (§1) For the C. albicans CAF2-1 strain, a fungal suspension from a standing culture for 48 hours at 30° C. in a Sabouraud dextrose liquid culture medium (SDB) was diluted with RPMI1640 medium to adjust a fungal suspension of 1.2×10^3 cells/mL. For the A. fumigatus Tsukuba strain, −80° C. stored strain was diluted with RPMI1640 medium to adjust to a fungal suspension of 4.5×10^3 cells/mL.
(§2) Using a U-bottomed 96 well plate, 8 samples/plate (A to H) of sample dilution solutions were prepared. On the 2nd to 12th rows were dispensed 10 μL of dimethyl sulfoxide solution. Weighted sample was dissolved in dimethyl sulfoxide to prepare a 2.5 mg/mL solution, 20 μL of this solution was added to the first row of the prepared plate, and 12 steps of two-fold step dilutions (10 μL of solution+10 μL of dimethyl sulfoxide solution) were performed on the plate. This sample dilution solution was dispensed in the amount of 1 μL to a flat-bottomed 96 well plate for MIC measurement to prepare a sample dilution plate.
(§3) The fungal suspension prepared in (1) was used in the amount of 99 μL/well to inoculate the flat-bottomed 96 well plate containing 1 μL/well of the test compound dilution prepared in (2), and a standing culture was carried out aerobically for 42-48 hours at 35° C.

Experiment [2] deals with A. fumigatus Tsukuba strain. The experiment can be described thus: Anti-Aspergillus activity, MIC measurement. Type of experiment: cell-based. To be noted: RPMI1640, 42-48 hours at 35° C., visual inspection, read-out: Anti-Aspergillus Activity (minimum inhibitory concentration, MIC). The protocol:
as §1, §2, §3

In brackets after ≈: the same amount, converted by molar mass.

Consider `Nc1ncccc1-c1cc(Cc2ccc(OCc3ccccn3)cc2F)no1` [Example 95, 3-(3-(2-Fluoro-4-(pyridin-2-ylmethoxy)-benzyl)-isoxazol-5-yl)-pyridin-2-ylamine], for which the MIC in experiment [1] was determined as 0.39 µg/mL (≈ 1.04 µM); in experiment [2], 1.56 µg/mL (≈ 4.14 µM).
For `Nc1ncccc1-c1cc(Cc2ccc(COc3ccc(F)cc3)nc2)no1` [Example 72, 3-(3-(6-(4-Fluoro-phenoxymethyl)-pyridin-3-ylmethyl)-isoxazol-5-yl)pyridin-2-ylamine], in that order: 6.25 µg/mL (≈ 16.6 µM) and 12.5 µg/mL (≈ 33.2 µM).
For `Nc1ccc(-c2cc(Cc3ccc(OCc4ccc(Cl)cn4)cc3)no2)c(N)n1` [Example 122, 3-(3-(4-(5-Chloro-pyridin-2-ylmethoxy)-benzyl)-isoxazol-5-yl)-pyridin-2,6-diamine], in that order: 1.56 µg/mL (≈ 3.82 µM) and 0.78 µg/mL (≈ 1.91 µM).
For `Nc1ncccc1-c1cc(Cc2ccc(OCc3cccc(F)c3)cc2)no1` [Example 6, 3-(3-(4-(3-Fluoro-benzyloxy)-benzyl)-isoxazol-5-yl)-pyridin-2-ylamine], in that order: 0.39 µg/mL (≈ 1.04 µM) and 0.39 µg/mL (≈ 1.04 µM).
As to `Nc1ccc(-c2cc(Cc3ccc(OCc4ccccc4F)cc3)no2)c(N)n1` [Example 18, 3-(3-(4-(2-Fluoro-benzyloxy)-benzyl)-isoxazol-5-yl)-pyridin-2,6-diamine], the MIC in experiment [1] is 1.56 µg/mL (≈ 4 µM); in experiment [2], 0.78 µg/mL (≈ 2 µM).
For `Nc1ccc(-c2cc(Cc3ccc(OCc4cccnc4)cc3)no2)c(N)n1` [Example 108, 3-(3-(4-(Pyridin-3-ylmethoxy)-benzyl)-isoxazol-5-yl)-pyridin-2,6-diamine], in that order: 1.56 µg/mL (≈ 4.18 µM) and 3.13 µg/mL (≈ 8.38 µM).
For `Nc1ccc(-c2cc(Cc3ccc(OCc4ccc(F)cn4)c(F)c3)no2)c(N)n1` [Example 157, 3-(3-(3-Fluoro-4-(5-fluoro-pyridin-2-ylmethoxy)-benzyl)-isoxazol-5-yl)pyridin-2,6-diamine], in that order: 3.13 µg/mL (≈ 7.65 µM) and 0.78 µg/mL (≈ 1.91 µM).
The matching figures for `Nc1ccc(-c2cc(Cc3ccc(Oc4ccccc4F)cc3)no2)c(N)n1` [Example 144, 3-(3-(4-(2-Fluoro-phenoxy)-benzyl)-isoxazol-5-yl)-pyridin-2,6-diamine]: 0.39 µg/mL (≈ 1.04 µM) and 0.2 µg/mL (≈ 0.531 µM).
`Nc1ccc(-c2cc(Cc3ccc(OCc4ccccc4)cc3)no2)cn1` [Example 28, 5-(3-(4-Benzyloxy-benzyl)-isoxazol-5-yl)-pyridin-2-ylamine]: the MIC in experiment [1] is greater than 25 µg/mL; in experiment [2] it was 0.39 µg/mL (≈ 1.09 µM).
Consider `Nc1ncccc1-c1cc(Cc2ccc(CCc3ccco3)cc2)no1` [Example 80, 3-(3-(4-(2-Furan-2-yl-ethyl)-benzyl)-isoxazol-5-yl)-pyridin-2-ylamine], for which the MIC is 0.2 µg/mL (≈ 0.579 µM) in experiment [1] and 0.78 µg/mL (≈ 2.26 µM) in experiment [2].
For `Nc1ccc(-c2cc(Cc3ccc(Sc4ccccc4)nc3)no2)c(N)n1` [Example 161, 3-(3-(6-Phenylsulfanyl-pyridin-3-ylmethyl)-isoxazol-5-yl)-pyridin-2,6-diamine], in that order: 0.39 µg/mL (≈ 1.04 µM) and 0.39 µg/mL (≈ 1.04 µM).
For `CCCCc1ccc(Cc2cc(-c3ccc(N)nc3N)on2)cc1` [Example 130, 3-(3-(4-Butyl-benzyl)-isoxazol-5-yl)-pyridin-2,6-diamine], in that order: 1.56 µg/mL (≈ 4.84 µM) and 0.2 µg/mL (≈ 0.62 µM).
The matching figures for `Nc1ccc(-c2cc(Cc3ccc(Oc4ccc(F)cc4)nc3)no2)cn1` [Example 186, 5-(3-(6-(4-Fluoro-phenoxy)-pyridin-3-ylmethyl)-isoxazol-5-yl)-pyridin-2-ylamine]: 3.13 µg/mL (≈ 8.64 µM) and 0.78 µg/mL (≈ 2.15 µM).
Turning to `Nc1ncccc1-c1cnn(Cc2ccc(Oc3ccccc3)nc2)c1` [Example 193, 3-(1-(6-Phenoxy-pyridin-3-ylmethyl)-1H-pyrazol-4-yl)-pyridin-2-ylamine], the MIC in experiment [1] and in experiment [2] was 0.78 µg/mL (≈ 2.27 µM) each time.
In the case of `Cc1ccc(Cc2ccc(Cc3cc(-c4cccnc4N)on3)s2)cc1` [Example 92, 3-(3-(5-(4-Methyl-benzyl)-thiophen-2-ylmethyl)-isoxazol-5-yl)-pyridin-2-ylamine], the MIC in experiment [1] and in experiment [2] was 0.39 µg/mL (≈ 1.08 µM) in each case.
In the case of `Nc1ccc(-c2cc(Cc3ccc(OCc4ccccn4)cc3)no2)c(N)n1` [Example 22, 3-(3-(4-(Pyridin-2-ylmethoxy)-benzyl)-isoxazol-5-yl)-pyridin-2,6-diamine], the MIC in experiment [1] was determined as 0.2 µg/mL (≈ 0.536 µM); in experiment [2] it was 0.39 µg/mL (≈ 1.04 µM).
For `Nc1ccc(-c2cc(Cc3cccc(OCC4CC4)c3)no2)c(N)n1` [Example 125, 3-(3-(3-Cyclopropylmethoxy-benzyl)-isoxazol-5-yl)-pyridin-2,6-diamine], in that order: 0.1 µg/mL (≈ 0.297 µM) and 0.39 µg/mL (≈ 1.16 µM).
For the molecule `CCCCc1ccc(Cc2cc(-c3cccnc3N)on2)cc1` [Example 70, 3-(3-(4-Butyl-benzyl)-isoxazol-5-yl)-pyridin-2-ylamine], the MIC amounted to 1.56 µg/mL (≈ 5.07 µM) in experiment [1] and 0.39 µg/mL (≈ 1.27 µM) in experiment [2].
The matching figures for `c1ccc(COc2ccc(Cc3cc(-c4cccnc4)on3)cc2)cc1` [Example 201, 3-(3-(4-Benzyloxy-benzyl)-isoxazol-5-yl)-pyridine]: 0.78 µg/mL (≈ 2.28 µM) and 0.39 µg/mL (≈ 1.14 µM).
Take `Nc1ccc(-c2cc(Cc3ccc(CCc4ccco4)cc3)no2)c(N)n1` [Example 140, 3-(3-(4-(2-Furan-2-yl-ethyl)-benzyl)-isoxazol-5-yl)-pyridin-2,6-diamine]: the MIC in experiment [1] is 0.2 µg/mL (≈ 0.555 µM); in experiment [2], 0.78 µg/mL (≈ 2.16 µM).
For `Cc1ccc(COc2ccc(Cc3cc(-c4cccnc4N)on3)cc2)nc1` [Example 42, 3-(3-(4-(5-Methyl-pyridin-2-ylmethoxy)-benzyl)-isoxazol-5-yl)-pyridin-2-ylamine], in that order: 0.78 µg/mL (≈ 2.09 µM) and 1.56 µg/mL (≈ 4.19 µM).
The matching figures for `CCOCc1ccc(Cn2cc(-c3cccnc3N)cn2)cc1` [Example 196, 3-(1-(4-Ethoxymethyl-benzyl)-1H-pyrazol-4-yl)-pyridin-2-ylamine]: 6.25 µg/mL (≈ 20.3 µM) and 6.25 µg/mL (≈ 20.3 µM).
For `Cc1ccc(-c2cc(Cc3ccc(COc4ccccn4)cc3)no2)cn1` [Example 190, 2-Methyl-5-(3-(4-(pyridin-2-yloxymethyl)-benzyl)-isoxazol-5-yl)-pyridine], in that order: 0.78 µg/mL (≈ 2.18 µM) and 0.78 µg/mL (≈ 2.18 µM).
As for `Nc1ccc(-c2cc(Cc3cccc(-c4ccccc4)c3)no2)c(N)n1` [Example 147, 3-(3-Biphenyl-3-ylmethyl-isoxazol-5-yl)-pyridin-2,6-diamine], the MIC in experiment [1] and in experiment [2] was 1.56 µg/mL (≈ 4.56 µM) each time.
With `Nc1ncccc1-c1cc(Cc2ccc(OCc3ccc(F)cn3)cc2F)no1` [Example 96, 3-(3-(2-Fluoro-4-(5-fluoro-pyridin-2-ylmethoxy)-benzyl)-isoxazol-5-yl)pyridin-2-ylamine], the MIC in experiment [1] came to 3.13 µg/mL (≈ 7.94 µM); in experiment [2] it was 0.78 µg/mL (≈ 1.98 µM).
As to `Nc1ncccc1-c1cc(Cc2ccc(Oc3cccnc3)nc2)no1` [Example 100, 3-(3-(6-(Pyridin-3-yloxy)-pyridin-3-ylmethyl)-isoxazol-5-yl)-pyrindin-2-ylamine], the MIC in experiment [1] is 3.13 µg/mL (≈ 9.06 µM); in experiment [2] it was 6.25 µg/mL (≈ 18.1 µM).
For `Cc1nc(N)ccc1-c1cc(Cc2ccc(COc3ccccn3)cc2)no1` [Example 187], in that order: 1.56 µg/mL (≈ 4.19 µM) and 0.78 µg/mL (≈ 2.09 µM).
For `Nc1ncccc1-c1cc(Cc2ccc(Br)cc2)no1` [Example 207, 3-(3-(4-bromo-benzyl)-isoxazol-5-yl)-pyridin-2-ylamine], in that order: 25 µg/mL (≈ 75.7 µM) and 6.25 µg/mL (≈ 18.9 µM).
For `Nc1ccc(-c2cc(Cc3ccc(OCC4CC4)cc3)no2)c(N)n1` [Example 21, 3-(3-(4-Cyclopropylmethoxy-benzyl)-isoxazol-5-yl)-pyridin-2,6-diamine], in that order: 1.56 µg/mL (≈ 4.64 µM) and 0.78 µg/mL (≈ 2.32 µM).
Consider `Nc1ccc(-c2cc(Cc3ccc(Oc4ccc(F)cc4)cc3)no2)c(N)n1` [Example 141, 3-(3-(4-(4-Fluoro-phenoxy)-benzyl)-isoxazol-5-yl)-pyridin-2,6-diamine], for which the MIC in experiment [1] is 0.39 µg/mL (≈ 1.04 µM); in experiment [2], 0.2 µg/mL (≈ 0.531 µM).
The matching figures for `Nc1ccc(-c2cc(Cc3ccc(CSc4ccccc4)cc3)no2)c(N)n1` [Example 217, 3-(3-(4-Phenylsulfanylmethyl-benzyl)-isoxazol-5-yl)-pyridin-2,6-diamine]: 0.1 µg/mL (≈ 0.257 µM) and 0.2 µg/mL (≈ 0.515 µM).
The matching figures for `CCCCOc1cccc(Cc2cc(-c3cccnc3N)on2)c1` [Example 65, 3-(3-(3-Butoxy-benzyl)-isoxazol-5-yl)-pyridin-2-ylamine]: 0.39 µg/mL (≈ 1.21 µM) and 0.78 µg/mL (≈ 2.41 µM).
The matching figures for `CCOC(=O)CNc1ccc(-c2cc(Cc3ccc(OCc4ccccc4)nc3)no2)c(N)n1` [Example 227, (6-Amino-5-(3-(6-benzyloxy-pyridin-3-ylmethyl)-isoxazol-5-yl)-pyridin-2-ylamino)-acetic acid ethyl ester]: 1.56 µg/mL (≈ 3.39 µM) and 1.56 µg/mL (≈ 3.39 µM).
As to `Nc1ncccc1-c1cc(Cc2ccc(OCc3ccc(F)cn3)c(F)c2)no1` [Example 94, 3-(3-(3-Fluoro-4-(5-fluoro-pyridin-2-ylmethoxy)-benzyl)-isoxazol-5-yl)pyridin-2-ylamine], the MIC in experiment [1] turned out to be 0.78 µg/mL (≈ 1.98 µM); in experiment [2] it was 0.39 µg/mL (≈ 0.989 µM).
